Measured values from patent US4229477A, “Pharmaceutical compositions containing bromhexine and method of treating diabetic nephropathy therewith” (Boehringer Ingelheim GmbH, priority 1978, dated 1980).

How the values were obtained:
glycoprotein metabolism [1] = assay: Effect of bromhexine on glycoprotein metabolism: urinary excretion of carbohydrate-containing material, diabetics; type: in vivo, humans
Description: (§1) The effect of N-(2-amino-3,5-dibromo-benzyl)-N-methyl-cyclohexylammonium chloride (Bromhexine) on glycoprotein metabolism was determined as follows:
(§2) 24 hour collections were made from 8 normal healthy humans (4 women and 4 men) and 8 diabetics (1 woman and 7 men) before and after a 3 to 4 week period of treating each subject orally 3 times with 24 mg of bromhexine. A 20% by volume aliquot was taken from each urine specimen and freeze-dried.
(§3) The dried material (ca 1 gm) was dissolved in the minimum quantity of distilled water and the solution was chromatographed with water on a Sephadez G-50 column (length: 148 cm; diameter: 3.4 cm). The carbohydrate-containing fraction was collected and subjected to ultrafiltration using a UM-05 membrane (Amicon Ultrafiltration Cell-Model 202). The filtrate obtained was again freeze-dried.
(§4) The dried material (ca 1 mg) was analyzed for carbohydrate, using gas-liquid chromatography. In this procedure, the sample, together with internal standards, was first subjected to methanolysis with 1.0 M HCl in dry methanol (0.5 ml) for 24 hours at 85° C. The resulting solution was neutralized and then treated with acetic acid anhydride (0.05 ml) for 6 hours. On completion of the treatment the solution obtained was centrifuged, and the supernatant liquid was transferred to a clean flask, dried and stored in a dessicator. When required for gas chromatography, the dried material was triturated with a trimethylsilylating mixture, and the resulting trimethylsilyl ethers of the methyl glycosides were subjected to gas chromatography (140°-200° C. at 0.5° C./min.).
5 patients were maintained on insulin, 2 on oral hypoglycemic agents and 1 on diet alone. Diabetic treatment was not changed during the study. 3 patients suffered varying degrees of retinopathy, 1 had ischaemic heart disease and 1 had intermittent proteinuria.

mice = conditions: British Pat. No. 968,254; cited from earlier work
glycoprotein metabolism [2] = assay: Effect of bromhexine on glycoprotein metabolism: urinary excretion of carbohydrate-containing material, healthy subjects; type: in vivo, humans; conditions: after treatment
Description: as §1, §2, §3, §4

[3] = healthy subjects, oral, 3 times 24 mg, 3 to 4 weeks, before 121

For `CN(Cc1cc(Br)cc(Br)c1N)C1CCCCC1` [N-(2-amino-3,5-dibromo-benzyl)-N-methyl-cyclohexylamine], the “proportion of saccharide and glycopeptide excreted” value (glycoprotein metabolism [1]; diabetics, 15 to 30 mg, 3 to 4 times per day) was “strongly reduced to levels equivalent to those of a normal healthy subject”.
For `CN(Cc1cc(Br)cc(Br)c1N)C1CCCCC1.Cl` [bromhexine, N-(2-amino-3,5-dibromo-benzyl)-N-methyl-cyclohexylammonium chloride], the “animals died (acute oral toxicity)” value (mice) is given as 0 out of 10, the “excretion of carbohydrate-containing material” value (glycoprotein metabolism [1]; diabetic subjects, after treatment) is given as “considerable decrease” and the “24 - Hour Volume” value (glycoprotein metabolism [1]; diabetics, after treatment, oral, 3 times 24 mg, 3 to 4 weeks, 24 hour urine, before 1,694) is given as 1,686 ml. For the same compound, the Fraction dry weight (glycoprotein metabolism [1]; diabetics, after treatment, oral, 3 times 24 mg, 3 to 4 weeks, before 8.7) was 6.1 gm, the Total dry weight (glycoprotein metabolism [1]; diabetics, after treatment, oral, 3 times 24 mg, 3 to 4 weeks, before 102.6) was 110.7 gm and the “Carbohydrate content: N-Acetylneuraminic acid” value (glycoprotein metabolism [1]; diabetics, after treatment, oral, 3 times 24 mg, 3 to 4 weeks, before 195) was 145 μMol/24 hours. For the same compound, the “Carbohydrate content: Mannose” value (glycoprotein metabolism [1]; diabetics, after treatment, oral, 3 times 24 mg, 3 to 4 weeks, before 205) was 121 μMol/24 hours, the “Carbohydrate content: Fucose” value (glycoprotein metabolism [1]; diabetics, after treatment, oral, 3 times 24 mg, 3 to 4 weeks, before 259) was 203 μMol/24 hours and the “Carbohydrate content: N-Acetylgalactosamine” value (glycoprotein metabolism [1]; diabetics, after treatment, oral, 3 times 24 mg, 3 to 4 weeks, before 264) was 176 μMol/24 hours. The “Carbohydrate content: N-Acetylglucosamine” value (glycoprotein metabolism [1]; diabetics, after treatment, oral, 3 times 24 mg, 3 to 4 weeks, before 313) was 181 μMol/24 hours, the “Carbohydrate content: Galactose” value (glycoprotein metabolism [1]; diabetics, after treatment, oral, 3 times 24 mg, 3 to 4 weeks, before 616) was 383 μMol/24 hours and the “Carbohydrate content: Glucuronic acid” value (glycoprotein metabolism [1]; diabetics, after treatment, oral, 3 times 24 mg, 3 to 4 weeks, before 1,854) was 987 μMol/24 hours. For the same compound, the “Carbohydrate content: Glucose” value (glycoprotein metabolism [1]; diabetics, after treatment, oral, 3 times 24 mg, 3 to 4 weeks, before 12,609) was 7,241 μMol/24 hours, the “24 - Hour Volume” value (glycoprotein metabolism [2]; healthy subjects, oral, 3 times 24 mg, 3 to 4 weeks, 24 hour urine, before 1,281) was 1,406 ml and the Fraction dry weight (glycoprotein metabolism [2]; healthy subjects, oral, 3 times 24 mg, 3 to 4 weeks, before 4.2) was 4.4 gm. The Total dry weight (glycoprotein metabolism [2]; healthy subjects, oral, 3 times 24 mg, 3 to 4 weeks, before 36.3) was 44.0 gm, the “Carbohydrate content: N-Acetylneuraminic acid” value (glycoprotein metabolism [2]; healthy subjects, oral, 3 times 24 mg, 3 to 4 weeks, before 94) was 147 μMol/24 hours and the “Carbohydrate content: Fucose” value (glycoprotein metabolism [2]; [3]) was 224 μMol/24 hours. The “Carbohydrate content: Mannose” value (glycoprotein metabolism [2]; [3]) was 169 μMol/24 hours, the “Carbohydrate content: N-Acetylgalactosamine” value (glycoprotein metabolism [2]; healthy subjects, oral, 3 times 24 mg, 3 to 4 weeks, before 139) was 196 μMol/24 hours and the “Carbohydrate content: N-Acetylglucosamine” value (glycoprotein metabolism [2]; healthy subjects, oral, 3 times 24 mg, 3 to 4 weeks, before 204) was 287 μMol/24 hours. The “Carbohydrate content: Galactose” value (glycoprotein metabolism [2]; healthy subjects, oral, 3 times 24 mg, 3 to 4 weeks, before 258) was 364 μMol/24 hours, the “Carbohydrate content: Glucose” value (glycoprotein metabolism [2]; healthy subjects, oral, 3 times 24 mg, 3 to 4 weeks, before 329) was 425 μMol/24 hours and the “Carbohydrate content: Glucuronic acid” value (glycoprotein metabolism [2]; healthy subjects, oral, 3 times 24 mg, 3 to 4 weeks, before 1,085) was 1,573 μMol/24 hours. The “urinary excretion of carbohydrate-containing material” value (glycoprotein metabolism [2]; normal subjects) was “insignificant rise”.
